Test results as given in patent publication US6897209B2, “Labelled factor XIIIa substrates” (GE Healthcare Limited, priority 1997, dated 2005).
Values belong to the compound of their own block, whether it stands above or below them.

Columns and labels:
[1] = test system: human plasma clots; assay: Incorporation into human plasma clots (in vitro plasma clot assay); format: biochemical; conditions: control vials without thrombin and calcium chloride, 60 minutes
Procedure: (§1) Incorporation of radiolabelled substrates into fibrin was investigated by induction of an in vitro human plasma clot in the following manner. To a siliconised 5 ml glass vial was added, (a) 800 μl of Tris(hydroxymethyl)aminomethane buffered saline pH 7.5 containing calcium chloride (50 mM Tris, 150 mM sodium chloride, 4 mM calcium chloride.), (b) 40 μl of physiological salt solution containing 100 units of thrombin per ml, (c) 400 μl of human plasma containing the radiolabelled substrate at a concentration of typically 10 kBq/ml. To aid induction of clot a roughened glass rod was added to the reaction vial. Control vials were prepared similarly but with the omission of thrombin and calcium chloride.
(§2) The proportion of total radioactivity was calculated by counting in suitable detection apparatus.
(§3) The fraction of radioactivity retained on the filter, after subtraction of the non-specific binding determined from the control, is a measure of incorporation into the filtered clots.

[2] = target: T1, human plasma clots (Homo sapiens, UniProt P00488); assay: as above; format: biochemical; conditions: for % specific uptake*: % retained with thrombin − % retained no thrombin; for % retained in plasma clot assay (with thrombin): human plasma with thrombin and calcium chloride, 60 minutes, ca. 20° C.
T1 construct: Factor XIII is transformed into its active form Factor XIIIa by thrombin in the presence of calcium ions; from tissue; host or cells: human plasma, clotted in vitro with thrombin and calcium chloride
T1 sequence (P00488 39-732): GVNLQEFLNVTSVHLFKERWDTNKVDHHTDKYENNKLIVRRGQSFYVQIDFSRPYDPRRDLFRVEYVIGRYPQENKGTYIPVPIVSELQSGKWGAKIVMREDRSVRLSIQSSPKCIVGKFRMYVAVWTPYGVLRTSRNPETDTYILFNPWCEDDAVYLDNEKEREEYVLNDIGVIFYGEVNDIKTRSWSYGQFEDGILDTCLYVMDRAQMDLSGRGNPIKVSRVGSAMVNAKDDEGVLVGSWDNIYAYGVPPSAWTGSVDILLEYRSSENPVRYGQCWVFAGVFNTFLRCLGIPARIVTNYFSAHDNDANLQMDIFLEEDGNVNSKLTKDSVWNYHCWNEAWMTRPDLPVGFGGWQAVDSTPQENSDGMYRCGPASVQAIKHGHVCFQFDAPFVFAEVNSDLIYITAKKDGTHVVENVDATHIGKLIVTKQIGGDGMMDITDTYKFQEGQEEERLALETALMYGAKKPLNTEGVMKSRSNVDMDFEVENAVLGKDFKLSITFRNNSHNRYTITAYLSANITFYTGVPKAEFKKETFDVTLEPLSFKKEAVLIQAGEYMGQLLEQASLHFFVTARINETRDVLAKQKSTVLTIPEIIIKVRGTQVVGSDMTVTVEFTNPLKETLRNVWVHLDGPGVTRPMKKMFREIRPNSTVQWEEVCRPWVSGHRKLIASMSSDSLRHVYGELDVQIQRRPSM
Procedure: as §1, §2, §3

[3] = Normal rat biodistribution; format: in vivo; conditions: i.v., male Wistar rats, Mean±SD n=3
Procedure: The resolution of a clot image is dependant on the combination of rate of incorporation of the radiopharmaceutical and its blood/tissues clearance rate. For this reason the biodistribution of several compounds has been determined in rats. Male Wistar (100-150 g) rats were injected i.v. with 0.1-0.2 ml of radiolabelled tracer solution (8 MBq/ml) and dissected at different times post-injection. The % ID in each of the selected tissues was measured. Some animals were kept in metabolism cages to be able to determine the % ID excreted in urine and faeces. The dissection times used for the majority of the agents was 2, 15, 30, 60, 240 min. Data are shown as % ID, Mean±SD, (n=3).

[4] = test system: clots induced in rat inferior vena cava; assay: Incorporation into clots induced in a rat model (rat inferior vena cava model); format: in vivo; conditions: rat IVC model; for Clot/Blood / Clot/Heart / Clot/Liver / Clot/Lung: 60 min; for % ID/g (clot uptake) / Relative conc (cpm/g of clot by dose/g animal): compound injected 5 min post-induction, clot removed after 60 min
Procedure: The rats (Male Wistar, 250-350 g) were anaesthetised with 15% urethane. After laparotomy, the vena cava was isolated and freed of surrounding fat tissue. […] The average weight of the clots formed in this model was around 27 mg, n=32, (5-50 mg range). The so compounds were injected 5 min post-induction. After 60 min the animals were sacrificed and the clot removed, weighed and counted. Other tissues e.g. blood, lung, heart, were also dissected and counted. The uptake of tracer into the clot was determined as the relative concentration (cpm/g of clot by dose/g animal ) and clot to background tissue.

[5] = target: T2, Factor XIIIa (Homo sapiens, UniProt P00488); assay: Factor XIIIa dependency of incorporation (dimethylcasein uptake, normal vs Factor XIII deficient plasma); format: biochemical; conditions: 1 KBq/ml, 60 minutes; uptake in normal plasma minus Factor XIII deficient plasma
T2 construct: Factor XIII is transformed into its active form Factor XIIIa by thrombin in the presence of calcium ions; from tissue; host or cells: human plasma
T2 sequence (P00488 39-732 limits assumed): T1 sequence (P00488 39-732)
Procedure: The assay was changed by replacing the mercaptoethanol with aprotinin at a final concentration of 2 μg/ml, and dimethylcasein (DMC) was used instead of casein.

% specific uptake* [2]: 18.4% | % retained in plasma clot assay (with thrombin) [2]: 23% | % ID Blood ([3]; 2 min post-injection): 22.59 ± 1.44 % ID | % ID GI Tract ([3]; 2 min post-injection): 9.75 ± 1.2 % ID | % ID Heart ([3]; 2 min post-injection): 0.63 ± 0.17 % ID | % ID Kidney ([3]; 2 min post-injection): 4.56 ± 0.29 % ID | % ID Liver ([3]; 2 min post-injection): 19.6 ± 2.16 % ID | % ID Lung ([3]; 2 min post-injection): 1.61 ± 0.06 % ID | % ID Muscle ([3]; 2 min post-injection): 21.6 ± 2.08 % ID | % ID Urine ([3]; 2 min post-injection): 0.13 ± 0.06 % ID | % ID Blood ([3]; 15 min post-injection): 1.22 ± 0.06 % ID | % ID GI Tract ([3]; 15 min post-injection): 70.9 ± 1.3 % ID | % ID Heart ([3]; 15 min post-injection): 0.06 ± 0.04 % ID | % ID Kidney ([3]; 15 min post-injection): 1.9 ± 0.95 % ID | % ID Liver ([3]; 15 min post-injection): 10.0 ± 0.86 % ID | % ID Lung ([3]; 15 min post-injection): 0.21 ± 0.03 % ID | % ID Muscle ([3]; 15 min post-injection): 3.97 ± 0.56 % ID | % ID Urine ([3]; 15 min post-injection): 6.23 ± 1.23 % ID | % ID Blood ([3]; 30 min post-injection): 0.55 ± 0.19 % ID | % ID GI Tract ([3]; 30 min post-injection): 80.7 ± 2.4 % ID | % ID Kidney ([3]; 30 min post-injection): 1.8 ± 0.42 % ID | % ID Liver ([3]; 30 min post-injection): 4.53 ± 0.5 % ID | % ID Lung ([3]; 30 min post-injection): 0.1 ± 0.04 % ID | % ID Muscle ([3]; 30 min post-injection): 1.6 ± 0.82 % ID | % ID Urine ([3]; 30 min post-injection): 7.18 ± 1.24 % ID | % ID Blood ([3]; 60 min post-injection): 0.39 ± 0.05 % ID | % ID GI Tract ([3]; 60 min post-injection): 85.4 ± 0.12 % ID | % ID Heart ([3]; 60 min post-injection): 0.03 ± 0.01 % ID | % ID Kidney ([3]; 60 min post-injection): 1.06 ± 0.22 % ID | % ID Liver ([3]; 60 min post-injection): 2.63 ± 0.38 % ID | % ID Lung ([3]; 60 min post-injection): 0.08 ± 0.01 % ID | % ID Muscle ([3]; 60 min post-injection): 1.22 ± 0.28 % ID | % ID Urine ([3]; 60 min post-injection): 7.71 ± 0.49 % ID | % ID Blood ([3]; 240 min post-injection): 0.1 ± 0.02 % ID | % ID GI Tract ([3]; 240 min post-injection): 87.5 ± 2.8 % ID | % ID Heart ([3]; 240 min post-injection): 0.01 ± 0.02 % ID | % ID Kidney ([3]; 240 min post-injection): 0.85 ± 0.08 % ID | % ID Liver ([3]; 240 min post-injection): 1.39 ± 0.29 % ID | % ID Lung ([3]; 240 min post-injection): 0.05 ± 0.02 % ID | % ID Muscle ([3]; 240 min post-injection): 0.22 ± 0.31 % ID | % ID Urine ([3]; 240 min post-injection): 8.55 ± 2.76 % ID | % specific DMC casein uptake [5]: 45%
SMILES: CC(=NO)C(C)(C)NCC(C)(CNC(=O)C1CCC(CNC(=O)c2ccc(S(=O)(=O)NCCCCCN)cc2)CC1)CNC(C)(C)C(C)=NO (stereo not drawn) [Compound 8, 3,3,6,9,9-pentamethyl-6-N[4-N-{(4-N-(5-aminopentyl)amidosulphonyl)benzoyl}aminomethylcyclohexylcarbonyl]aminomethyl-4,8-diazaundecane-2,10-dione dioxime]
% retained in plasma clot assay (no thrombin) [1]: 4.6% | Clot/Blood [4]: 4.1 | Clot/Heart [4]: 8.1 | Clot/Liver [4]: 0.40 | Clot/Lung [4]: 4.4 | % ID/g (clot uptake) [4]: 0.17 ± 0.09 % ID/g | Relative conc (cpm/g of clot by dose/g animal) [4]: 0.59 ± 0.31

SMILES: CC(CNCc1ccccc1O)(CNCc1ccccc1O)CNC(=O)c1ccc(S(=O)(=O)NCCCCCN)cc1 [Compound 25, N,N′-bis-(2-hydroxybenzyl)-2-(4-N-(5-aminopentyl)amidosulphonyl)benzamidomethyl-2-methyl-propane-1,3-diamine]
% retained in plasma clot assay (no thrombin) [1]: 1.9% | % specific uptake* [2]: 12.9% | % retained in plasma clot assay (with thrombin) [2]: 15% | % ID Blood ([3]; 2 min post-injection): 23.0 ± 2.9 % ID | % ID GI Tract ([3]; 2 min post-injection): 8.53 ± 0.66 % ID | % ID Heart ([3]; 2 min post-injection): 0.74 + 0.1 % ID | % ID Kidney ([3]; 2 min post-injection): 5.37 ± 1.3 % ID | % ID Liver ([3]; 2 min post-injection): 13.6 ± 2.47 % ID | % ID Lung ([3]; 2 min post-injection): 3.42 ± 0.39 % ID | % ID Muscle ([3]; 2 min post-injection): 25.7 ± 2.0 % ID | % ID Urine ([3]; 2 min post-injection): 0.11 ± 0.06 % ID | % ID Blood ([3]; 15 min post-injection): 3.9 ± 0.17 % ID | % ID GI Tract ([3]; 15 min post-injection): 45.68 ± 4.1 % ID | % ID Heart ([3]; 15 min post-injection): 0.16 + 0.01 % ID | % ID Kidney ([3]; 15 min post-injection): 7.13 ± 0.4 % ID | % ID Liver ([3]; 15 min post-injection): 13.5 ± 0.14 % ID | % ID Lung ([3]; 15 min post-injection): 1.37 ± 0.03 % ID | % ID Muscle ([3]; 15 min post-injection): 8.93 ± 0.38 % ID | % ID Urine ([3]; 15 min post-injection): 4.62 ± 2.9 % ID | % ID Blood ([3]; 30 min post-injection): 2.12 ± 0.34 % ID | % ID GI Tract ([3]; 30 min post-injection): 54.7 ± 2.09 % ID | % ID Heart ([3]; 30 min post-injection): 0.1 + 0.03 % ID | % ID Kidney ([3]; 30 min post-injection): 5.6 ± 0.1 % ID | % ID Liver ([3]; 30 min post-injection): 9.66 ± 1.65 % ID | % ID Lung ([3]; 30 min post-injection): 1.17 ± 0.01 % ID | % ID Muscle ([3]; 30 min post-injection): 6.43 ± 0.41 % ID | % ID Urine ([3]; 30 min post-injection): 11.6 ± 2.0 % ID | % ID Blood ([3]; 60 min post-injection): 1.84 ± 0.19 % ID | % ID GI Tract ([3]; 60 min post-injection): 55.87 ± 2.5 % ID | % ID Heart ([3]; 60 min post-injection): 0.08 + 0.03 % ID | % ID Kidney ([3]; 60 min post-injection): 4.24 ± 0.4 % ID | % ID Liver ([3]; 60 min post-injection): 6.73 ± 0.48 % ID | % ID Lung ([3]; 60 min post-injection): 0.96 ± 0.11 % ID | % ID Muscle ([3]; 60 min post-injection): 4.95 ± 0.09 % ID | % ID Urine ([3]; 60 min post-injection): 17.5 ± 1.7 % ID | % ID Blood ([3]; 240 min post-injection): 0.62 ± 0.16 % ID | % ID GI Tract ([3]; 240 min post-injection): 71.3 ± 0.7 % ID | % ID Heart ([3]; 240 min post-injection): 0.02 + 0.01 % ID | % ID Kidney ([3]; 240 min post-injection): 3.19 ± 0.1 % ID | % ID Liver ([3]; 240 min post-injection): 3.97 ± 0.53 % ID | % ID Lung ([3]; 240 min post-injection): 0.21 ± 0.05 % ID | % ID Muscle ([3]; 240 min post-injection): 1.3 ± 0.38 % ID | % ID Urine ([3]; 240 min post-injection): 16.81 ± 0.43 % ID | Clot/Blood [4]: 3.3 | Clot/Heart [4]: 5 | Clot/Liver [4]: 0.65 | Clot/Lung [4]: 1.5 | % ID/g (clot uptake) [4]: 0.29 ± 0.09 % ID/g | Relative conc (cpm/g of clot by dose/g animal) [4]: 0.8 ± 0.2 | % specific DMC casein uptake [5]: 26%
